This passage reports TGI results from PubChem BioAssay (NCI).

Assay in all cases: growth of human tumour cells (NCI), 48 h
Assay [1] has as its system ACHN renal.
For assay [2], the system named is HCC-2998 colon.
For assay [3], the system named is K-562 leukemia.
Assay [4] has as its system MALME-3M melanoma.
Assay [5] has as its system MCF7 breast.
Assay [6] relates to NCI-H522 lung.
Assay [7] concerns SK-MEL-5 melanoma.
The subject of assay [8] is SNB-19 CNS.
Assay [9] relates to SNB-75 CNS.
Assay [10] concerns TK-10 renal.

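Interpolation was linear, between the two tested concentrations surrounding the appropriate level; five concentrations were tested over 48 hours in 96-well plates. TGI is the concentration that stops growth completely.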

As for `CSc1c(S(C)=O)c2ccccc2n1C` (stereo not given), the TGI in assay [1], in assay [2], in assay [3], in [4], in assay [5] and in assay [6] was more than 100 µM each time. The TGI in assay [7], in [8], in [9] and in [10] was more than 100 µM each time.
Turning to `O=C(N/N=C\c1ccc(Cl)cc1)Nc1cccc2ccccc12`, the TGI is 4.92 µM in assay [1]; more than 100 µM in [2]; more than 100 µM in [3]; more than 24.4 µM in assay [4]; 22.3 µM in assay [5]; more than 31.5 µM in assay [6]. The TGI in [7] is more than 37.4 µM; in [8], 5.64 µM; in [9], 5.62 µM; in assay [10], 17 µM.
On to `CC(=O)Oc1ccc(C)c2c1[C@H]1CC[C@]3(C)[C@@H](OC(C)=O)CC[C@H]3[C@@H]1CC2`, for which the TGI in [1] came to 29.8 µM; in assay [2], 32.8 µM; in assay [3], 68.3 µM; in [4], 30.4 µM; in assay [5], 38.9 µM; in assay [6] it was 34.1 µM. The TGI in assay [7] turned out to be 34.9 µM; in assay [8], 32.6 µM; in [9], 54.5 µM; in assay [10], 67.9 µM.
As for `O=[N+]([O-])c1ccc(C2NC(=S)NC3c4cc([N+](=O)[O-])ccc4CCCC23)cc1` (stereo not given), the TGI in [1], in assay [2], in [3], in [4], in assay [5] and in assay [6] was more than 100 µM each time. Besides, the TGI in assay [7] was more than 100 µM; in [8], more than 100 µM; in [9], 44.2 µM; in [10], more than 100 µM.
Take `C=C1C(=O)O[C@H]2C1C[C@H](O)/C(C)=C/CC[C@@]1(C)O[C@H]21` (stereo not given in full): the TGI is 22 µM in [1]; 27.5 µM in assay [2]; more than 100 µM in [3]; 19.5 µM in assay [4]; 27.6 µM in assay [5]; 3.43 µM in assay [6]. For the same molecule, the TGI is 22.6 µM in assay [7], more than 100 µM in assay [8], more than 100 µM in assay [9] and 29.9 µM in assay [10].
Regarding `CC(C)(C)c1cc(OCc2n[nH]c(=S)n2N)c(Cl)cc1OCc1n[nH]c(=S)n1N`, the TGI in assay [1], in [2], in assay [3], in [4], in [5] and in assay [6] was more than 100 µM each time. In addition, the TGI in assay [7] was 54.6 µM; in assay [8], more than 100 µM; in [9], more than 100 µM; in [10] it was more than 100 µM.
As to `CC(C)(CN1CCCCC1)C(=O)CC(SCCS(=O)(=O)O)c1ccccc1` (stereo not given), the TGI in assay [1] came out at 52.9 µM; in [2] it was 41.8 µM; in assay [3] it was 29.6 µM; in assay [4], 33.3 µM; in assay [5] it was 33.4 µM; in assay [6] it was 5.83 µM. For the same molecule, the TGI in assay [7] amounted to 31.4 µM; in [8], 54.2 µM; in assay [9] it was 54.9 µM; in assay [10], 38.1 µM.
For the molecule `CCOC(=O)C12CCC(c3c(C)cccc3C)(O1)C(C(=O)OC)=C2C(=O)OC` (stereo not given), the TGI in [1] was more than 10 µM; in [2], more than 10 µM; in assay [3], more than 10 µM; in assay [4], 6.4 µM; in [5], more than 10 µM; in [6] it was more than 10 µM. Moreover, the TGI was 5.37 µM in assay [7], more than 10 µM in assay [8], 9.85 µM in assay [9] and more than 10 µM in assay [10].
In the case of `CCOC(=O)c1cc(C2CCN(Cc3ccccc3)C2=O)c(C(=O)/C=C(/C)N)[nH]1` (stereo not given), the TGI in [1], in assay [2], in [3], in [4], in assay [5] and in assay [6] was more than 100 µM throughout. For the same molecule, the TGI in assay [7], in assay [8], in assay [9] and in assay [10] was more than 100 µM throughout.
On to `CC(C)C1CCC(=O)CC1CCCCC1CC(=O)CC1O[Si](C)(C)C(C)(C)C` (stereo not given), for which the TGI is 15.2 µM in [1]; 19.3 µM in assay [2]; more than 34.9 µM in [3]; 19.1 µM in [4]; 27.2 µM in assay [5]; 4.02 µM in [6]. For the same molecule, the TGI was 12.6 µM in assay [7], 13.2 µM in assay [8], 26 µM in assay [9] and 23.4 µM in assay [10].
For the molecule `CCOC(=O)c1c(Br)c(-c2ccc([N+](=O)[O-])cc2)c(Br)n1C`, the TGI in assay [1], in assay [2], in [3], in assay [4], in assay [5] and in assay [6] was more than 10 µM in each case. For the same molecule, the TGI in assay [7], in assay [8], in assay [9] and in assay [10] was more than 10 µM each time.
For `C[N+]1(C)C/C(=C\C=C\c2ccccc2)C(=O)/C(=C/C=C/c2ccccc2)C1`, the TGI in assay [1] was more than 100 µM; in [2] it was 34.2 µM; in assay [3], 36 µM; in [4] it was 40.4 µM; in [5], 38.4 µM; in [6], 21.5 µM. Moreover, the TGI in assay [7] is 25.2 µM; in assay [8] it was 27.5 µM; in assay [9], 40.3 µM; in [10] it was more than 67.1 µM.
For the molecule `Cn1c2ccccc2c(=NNc2ccc(S(=O)(=O)N=C(N)N)cc2)c2ccccc21`, the TGI in assay [1] amounted to 20.1 µM; in assay [2], 19.8 µM; in assay [3] it was 18 µM; in [4] it was 20.7 µM; in assay [5], 12.9 µM; in assay [6], 11 µM. Further, the TGI was 20.1 µM in assay [7], 22.6 µM in assay [8], 25.4 µM in [9] and 26.5 µM in assay [10].
For `c1cc2cc(Cc3ccc4[nH]ccc4c3)ccc2[nH]1`, the TGI in [1] is 64.8 µM; in assay [2], 28.8 µM; in assay [3] it was more than 100 µM; in assay [4], 34.4 µM; in assay [5] it was 32.3 µM; in [6], 34.5 µM. The TGI in assay [7] came out at 30 µM; in assay [8], 47.5 µM; in assay [9], 38.6 µM; in assay [10], 52.3 µM.
On to `O=C(O)c1ccc(Nc2nc3ccc(C(F)(F)F)cc3nc2-c2ccccc2)cc1`, for which the TGI in assay [1] was more than 100 µM; in [2], 40.3 µM; in assay [3] it was more than 100 µM; in [4], more than 100 µM; in [5] it was more than 100 µM; in assay [6], more than 100 µM. The TGI in [7] was more than 100 µM; in assay [8] it was more than 100 µM; in assay [9], more than 100 µM; in [10], 52.4 µM.
Take `COc1ccc(C(SCCO)(c2ccc(OC)cc2)c2ccc(OC)cc2)cc1`: the TGI in assay [1] was 50.2 µM; in assay [2] it was 30.5 µM; in [3] it was 28.4 µM; in assay [4], 34.3 µM; in [5], 31.6 µM; in assay [6], 28.2 µM. In addition, the TGI in assay [7] is 24.6 µM; in assay [8], more than 100 µM; in [9], 61.1 µM; in [10] it was 55 µM.
On to `CC(C)NC(=O)OCc1c(COC(=O)NC(C)C)c(-c2cc[n+](COC(=O)Cc3ccccc3)cc2)n2c1CCC2`, for which the TGI in assay [1], in assay [2], in assay [3], in assay [4], in assay [5] and in assay [6] was more than 100 µM throughout. Besides, the TGI in assay [7], in assay [8], in assay [9] and in [10] was more than 100 µM each time.
For `Oc1c(Cl)c(Cl)c(O)c(-c2cnc(-c3ncc(-c4c(O)c(Cl)c(Cl)c(O)c4Cl)s3)s2)c1Cl`, the TGI was 51.5 µM in [1]; more than 100 µM in assay [2]; more than 100 µM in assay [3]; 71.3 µM in assay [4]; 52 µM in assay [5]; 5.43 µM in assay [6]. The TGI was found to be 30.1 µM in assay [7], 88.1 µM in [8], 71.7 µM in assay [9] and 70.1 µM in assay [10].
On to `O=c1[nH]nc(-c2ccccc2)n1-n1cccc1`, for which the TGI in assay [1], in assay [2], in assay [3], in [4], in assay [5] and in assay [6] was more than 100 µM each time. In addition, the TGI in assay [7], in assay [8], in assay [9] and in assay [10] was more than 100 µM in each case.
With `O=C(OCC1CC(C2(O)CCCCC2)C(=O)O1)c1ccccc1` (stereo not given), the TGI in [1], in [2], in assay [3], in assay [4], in assay [5] and in [6] was more than 100 µM in each case. Also, the TGI in assay [7], in [8], in assay [9] and in [10] was more than 100 µM in each case.
Regarding `O=C(NCCCN1CCN(CCCNC(=O)c2cc(-c3ccccc3)nc3ccccc23)CC1)c1cc(-c2ccccc2)nc2ccccc12`, the TGI in assay [1] amounted to 28.8 µM; in assay [2], 6.06 µM; in assay [3], 34.2 µM; in assay [4] it was 3.21 µM; in assay [5], 53.5 µM; in [6], 32 µM. Besides, the TGI in assay [7] was 3.98 µM; in assay [8], 33 µM; in assay [9] it was more than 52.6 µM; in assay [10], 60.2 µM.
Consider `CC1=NC(=O)CNN1C1=NNC2(C(=O)N1)c1ccccc1-c1ccccc12`, for which the TGI in [1], in assay [2], in [3], in [4], in [5] and in assay [6] was more than 100 µM each time. Also, the TGI in [7], in assay [8], in [9] and in assay [10] was more than 100 µM in each case.
